Holding throughout (format): cell-based
Data set [1] relates to p38 MAP kinase. The experiment in a line: Immunecomplex protein kinase assay of p38 MAP kinase from treated HeLa cells, ATF2 as substrate. Particulars: for p38 activation (in words): PMA 10 nM, EGF 10 nM, sorbitol 300 mM, interleukin-1 10 ng/ml, TNFα 10 ng/ml; for Relative Protein Kinase Activity p38: control = 1.0. The procedure: (§1) The effect of phorbol ester, EGF, UV radiation, osmotic stress, IL-1, tumor necrosis factor (TNF), and LPS on p38 MAP kinase and JNK1 activity were measured in immunecomplex protein kinase assays using ATP [γ-^32P] and ATF2 as substrates. TNFα and IL-1α were from Genzyme Corp. Lipolysaccharide (LPS) was isolated from lyophilized Salmonella minesota Re595 bacteria as described (Mathison et a. (1988) J. Clin. Invest. 81:1925). Phorbol myristate acetate was from Sigma. EGF was purified from mouse salivary glands (Davis (1988) J. Biol. Chem. 263:9462). Kinase assays were performed using immunoprecipitates of p38 and JNK. The immunocomplexes were washed twice with kinase buffer (described above), and the assays initiated by the addition of 1 μg of ATF2 and 50 μM [γ-^32P]ATP (10 Ci/mmol) in a final volume of 25 μl. The reactions were terminated after 30 minutes at 30° C. by addition of Laemmli sample buffer. The phosphorylation of ATF2 was examined after SDS-PAGE by autoradiography, and the rate of ATF2 phosphorylation quantitated by PhosphorImager analysis. […]

The subject of a further data set is ATF2. The experiment in a line: Electrophoretic mobility of ATF2 by immuno-blot in JNK1-transfected CHO cells. The settings on record: IL-1α 10 ng/ml or fetal bovine serum 20%, 30 minutes at 37° C. The procedure: CHO cells were maintained in Ham's F12 medium supplemented with 5% […] (Gibco-BRL). Cells were labeled and transfected with JNK1 as described above. CHO cells were treated with UV-C (40 J/m^2), IL-1α (10 ng/ml) (Genzyme), or fetal bovine serum (20%) (Gibco-BRL). The cells were incubated for 30 minutes at 37° C. prior to harvesting. The electrophoretic mobility of ATF2 after SDS-PAGE was examined by protein immuno-blot analysis.

The test system of data set [2] is JNK1. The data set can be described thus: Immunecomplex protein kinase assay of JNK1 from treated HeLa cells, ATF2 as substrate. The settings on record: for JNK1 activation (in words): PMA 10 nM, EGF 10 nM, sorbitol 300 mM, interleukin-1 10 ng/ml, TNFα 10 ng/ml; for Relative Protein Kinase Activity JNK: control = 1.0. The procedure:
as §1

Data set [3] relates to JNK1. The data set can be described thus: JNK1 immunecomplex kinase assay (c-Jun substrate) in CHO cells expressing epitope-tagged JNK1 after osmotic shock. The procedure:
CHO cells were co-transfected with the plasmid pCMV-Flag-Jnk1 and pRSV-Neo (Dérijard et al. (1994) supra) . A stable cell line expressing epitope-tagged Jnk1 (Flag; Immunex Corp.) was isolated by selection with Geneticin (Gibco-BRL). The cells were incubated with 0, 100, 150, 300, 600, or 1000 mM sorbitol for 1 hour at 37° C. The cells were collected in lysis buffer (20 mM Tris, pH 7.4, 1% TRITON® X-100, 2 mM EDTA, 137 mM NaCl, 25 mM β-glycerophosphate, 1 mM orthovanadate, 2 mM pyrophosphate, 10% glycerol, 1 mM phenylmethylsulfonyl fluoride, 10 μg/ml leupeptin) and a soluble extract was obtained by centrifugation at 100,000 g for 30 minutes at […]. The epitope-tagged JNK1 was isolated by immunoprecipitation with the monoclonal antibody M2 (Immunex Corp.). The immunoprecipitates were washed extensively with lysis buffer. Immunecomplex kinase assays were done in 25 μl of 25 mM Hepes, pH 7.4, 25 mM MgCl2, 25 mM β-glycerophosphate, 2 mM dithiothreitol, 100 AM orthovanadate, and 50 AM ATP [γ-^32P] (10 Ci/mmole) with 2.5 μg of bacterially expressed c-Jun (residues 1-79) fused to glutathione-S-transferase (GST) as a substrate. The phosphorylation of c-Jun was examined after SDS-PAGE by autoradiography and PhosphorImager (Molecular Dynamics Inc.) analysis.
The time course of JNK1 protein kinase activation was measured in cells incubated in medium supplemented with 300 mM sorbitol as described above. Increased JNK1 activity was observed within 5 minutes of exposure to sorbitol, with maximum activity occurring after 15-30 minutes.

Data set [4] deals with p38 MAP kinase. The experiment in a line: p38 MAP kinase immunecomplex assay (ATF2 substrate) in transfected COS-1 cells. The settings on record: COS-1 cells transfected with epitope-tagged p38; 10 nM EGF. The method, then:
COS-1 cells were transfected with epitope-tagged p38 MAP kinase, together with an empty expression vector or an expression vector encoding MEK1, MKK3, or MKK4α. Some of the cultures were exposed to UV radiation (40 J/m^2) or treated with 10 nM EGF. p38 MAP kinase was isolated by immunoprecipitation with M2 monoclonal antibody, and the protein kinase activity was measured in the immunecomplex with [γ-^32P]ATP and ATF2 as substrates. The product of the phosphorylation reaction was visualized after SDS-PAGE by autoradiography. […] MKK3 and MKK4 phosphorylation of ATF2 was similar to that seen with p38 MAP kinase isolated from UV-irradiated cells.

Data set [5] deals with JNK1. The experiment in a line: Immunecomplex protein kinase assay of JNK1 from CHO cells that express human CD14, ATF2 as substrate. The method, then: (§2) The effect of phorbol ester, EGF, UV radiation, osmotic stress, IL-1, tumor necrosis factor (TNF), and LPS on p38 MAP kinase and JNK1 activity were measured in immunecomplex protein kinase assays using ATP [γ-^32P] and ATF2 as substrates. TNFα and IL-1α were from Genzyme Corp. Lipolysaccharide (LPS) was isolated from lyophilized Salmonella minesota Re595 bacteria as described (Mathison et a. (1988) J. Clin. Invest. 81:1925). Phorbol myristate acetate was from Sigma. EGF was purified from mouse salivary glands (Davis (1988) J. Biol. Chem. 263:9462). Kinase assays were performed using immunoprecipitates of p38 and JNK. The immunocomplexes were washed twice with kinase buffer (described above), and the assays initiated by the addition of 1 μg of ATF2 and 50 μM [γ-^32P]ATP (10 Ci/mmol) in a final volume of 25 μl. The reactions were terminated after 30 minutes at 30° C. by addition of Laemmli sample buffer. The phosphorylation of ATF2 was examined after SDS-PAGE by autoradiography, and the rate of ATF2 phosphorylation quantitated by PhosphorImager analysis.
(§3) The effect of LPS on the activity of p38 was examined using CHO cells that express human CD14.

Data set [6] has as its system p38 MAP kinase. The experiment in a line: Immunecomplex protein kinase assay of p38 MAP kinase from CHO cells that express human CD14, ATF2 as substrate. The procedure: as §2, §3
Data set [7] deals with reporter plasmid pG5E1bLuc (GAL4 sites, firefly luciferase gene). The experiment in a line: GAL4-ATF2 fusion protein co-transfection assay with luciferase reporter plasmid pG5E1bLuc in CHO cells. The settings on record: luciferase and β-galactosidase mean activity ratio of three experiments. The procedure:
A fusion protein consisting of ATF2 and the GAL4 DNA binding domain was expressed in CHO cells as described above. The activity of the GAL4-ATF2 fusion protein was measured in co-transfection assays with the reporter plasmid pG5E1bLuc (Seth et al. (1992) J. Biol. Chem. 267:24796, hereby specifically incorporated by reference). The reporter plasmid contains five GAL4 sites cloned upstream of a minimal promoter element and the firefly luciferase gene. Transfection efficiency was monitored with a control plasmid that expresses β-galactosidase (pCH110; Pharmacia-LKB Biotechnology). The luciferase and β-galactosidase activity detected in cell extracts was measured as the mean activity ratio of three experiments (Gupta et al. (1993) Proc. Natl. Acad. Sci. USA 90:3216, hereby specifically incorporated by reference).

Where [8] appears, read: CHO cells that express human CD14, 10 ng/ml, control = 1.0.

With “Interleukin-1: IL-1α from Genzyme Corp., pro-inflammatory cytokine”, in the data set with p38 MAP kinase [1], the “p38 activation (in words)” value was “strongly activated” and the “Relative Protein Kinase Activity p38” value was determined as 6.2. The “shift in ATF2 electrophoretic mobility (in words)” value in the data set with ATF2 is on record as “A shift in ATF2 electrophoretic mobility was observed”. Besides, in the data set with JNK1 [2], the “JNK1 activation (in words)” value is given as “strongly activated” and the “Relative Protein Kinase Activity JNK” value worked out at 8.9.

As for `OC[C@@H](O)[C@@H](O)[C@H](O)[C@@H](O)CO` [sorbitol], in the data set on p38 MAP kinase [1], the “p38 activation (in words)” value is “strongly activated” and the “Relative Protein Kinase Activity p38” value was 4.2. Besides, in the data set on JNK1 [2], the “JNK1 activation (in words)” value is on record as “strongly activated” and the “Relative Protein Kinase Activity JNK” value worked out at 18.1. Further, in the data set on JNK1 [3] (300 mM sorbitol), the “time of maximum JNK1 activity” value was 15 to 30 min and the “time to increased JNK1 activity” value was at most 5 min. Further, the “JNK1 activation (in words)” value with JNK1 [3] (100, 150, 300, 600 or 1000 mM sorbitol, 1 hour at 37° C.) is “JNK1 activation was observed at all concentrations”.

Tumor Necrosis Factor: in the data set on p38 MAP kinase [1], the “p38 activation (in words)” value is on record as “strongly activated” and the “Relative Protein Kinase Activity p38” value is reported as 10.3. Also, in the data set with JNK1 [2], the “JNK1 activation (in words)” value is listed as “strongly activated” and the “Relative Protein Kinase Activity JNK” value turned out to be 19.3.

Take “Epidermal Growth Factor: EGF purified from mouse salivary glands”: in the data set on p38 MAP kinase [1], the “p38 activation (in words)” value is given as “only weakly activated” and the “Relative Protein Kinase Activity p38” value is reported as 2.1. Also, in the data set with JNK1 [2], the “JNK1 activation (in words)” value is reported as “only weakly activated” and the “Relative Protein Kinase Activity JNK” value worked out at 1.9. Moreover, in the data set with p38 MAP kinase [4], the “ATF2 phosphorylation by p38 MAP kinase isolated from treated cells (in words)” value was “not phosphorylated”.

As for `CCCCCCCCCCCCCC(=O)O[C@@H]1[C@@H](C)[C@@]2(O)[C@@H](C=C(CO)C[C@]3(O)C(=O)C(C)=C[C@@H]23)[C@@H]2C(C)(C)[C@]12OC(C)=O` [Phorbol Ester, Phorbol myristate acetate], in the data set with p38 MAP kinase [1], the “p38 activation (in words)” value is “very weakly activated” and the “Relative Protein Kinase Activity p38” value is listed as 2.9. Also, in the data set with JNK1 [2], the “JNK1 activation (in words)” value is on record as “very weakly activated” and the “Relative Protein Kinase Activity JNK” value came out at 2.3.

As for Lipopolysaccharide, the “Relative Protein Kinase Activity JNK” value in the data set with JNK1 [5] (setting [8]) amounted to 3.6. Moreover, the “JNK1 activation (in words)” value in the data set on JNK1 [5] (CHO cells, 10 ng/ml LPS) is recorded as “only slightly activated”. In the data set on p38 MAP kinase [6] (setting [8]), the “Relative Protein Kinase Activity p38” value was 3.7. For the same molecule, the “p38 activation (in words)” value in the data set with p38 MAP kinase [6] (CHO cells, 10 ng/ml LPS) is “only slightly activated”.

B1: GAL4-ATF2 (Ala^69.71): GAL4-ATF2 fusion protein with Thr69 and Thr71 replaced with Ala (protein)
chain: MKLLSSIEQACDICRLKKLKCSKEKPKCAKCLKNNWECRYSPKTKRSPLTRAHLTEVESRLERLEQLFLLIFPREDLDMILKMDSLQDIKALLTGLFVQDNVNKDAVTDRLASVETDMPLTLRQHRISATSSSEESSNKGQRQLTVSMKFKLHVNSARQYKDLWNMSDDKPFLCTAPGCGQRFTNEDHLAVHKHKHEMTLKFGPARNDSVIVADQAPAPTRFLKNCEEVGLFNELASPFENEFKKASEDDIKKMPLDLSPLATPIIRSKIEEPSVVETTHQDSPLPHPESTTSDEKEVPLAQTAQPTSAIVRPASLQVPNVLLTSSDSSVIIQQAVPSPTSSTVITQAPSSNRPIVPVPGPFPLLLHLPNGQTMPVAIPASITSSNVHVPAAVPLVRPVTMVPSVPGIPGPSSPQPVQSEAKMRLKAALTQQHPPVTNGDTVKGHGSGLVRTQSEESRPQSLQQPATSTTETPASPAHTTPQTQSTSGRRRRAANEDPDEKRRKFLERNRAAASRCRQKRKVWVQSLEKKAEDLSSLNGQLQSEVTLLRNEVAQLKQLLLAHKDCPVTAMQKKSGYHTADKDDSSEDISVPSSPHTEAIQHSSVSTSNGVSSTSKAEAVATSVLTQMADQSTEPALSQIVMAPSSQSQPSGS
On to B1, for which the “LUCIFERASE ACTIVITY” value in data set [7] is on record as 29,000 Light Units/OD.

B2: GAL4-ATF2 (wild type): fusion protein consisting of ATF2 and the GAL4 DNA binding domain, wild-type Thr69,71 (protein)
chain: MKLLSSIEQACDICRLKKLKCSKEKPKCAKCLKNNWECRYSPKTKRSPLTRAHLTEVESRLERLEQLFLLIFPREDLDMILKMDSLQDIKALLTGLFVQDNVNKDAVTDRLASVETDMPLTLRQHRISATSSSEESSNKGQRQLTVSMKFKLHVNSARQYKDLWNMSDDKPFLCTAPGCGQRFTNEDHLAVHKHKHEMTLKFGPARNDSVIVADQTPTPTRFLKNCEEVGLFNELASPFENEFKKASEDDIKKMPLDLSPLATPIIRSKIEEPSVVETTHQDSPLPHPESTTSDEKEVPLAQTAQPTSAIVRPASLQVPNVLLTSSDSSVIIQQAVPSPTSSTVITQAPSSNRPIVPVPGPFPLLLHLPNGQTMPVAIPASITSSNVHVPAAVPLVRPVTMVPSVPGIPGPSSPQPVQSEAKMRLKAALTQQHPPVTNGDTVKGHGSGLVRTQSEESRPQSLQQPATSTTETPASPAHTTPQTQSTSGRRRRAANEDPDEKRRKFLERNRAAASRCRQKRKVWVQSLEKKAEDLSSLNGQLQSEVTLLRNEVAQLKQLLLAHKDCPVTAMQKKSGYHTADKDDSSEDISVPSSPHTEAIQHSSVSTSNGVSSTSKAEAVATSVLTQMADQSTEPALSQIVMAPSSQSQPSGS
With B2, the “LUCIFERASE ACTIVITY” value in data set [7] is 320,000 Light Units/OD.

Source of the values: US6610523B1, “Cytokine-, stress-, and oncoprotein-activated human protein kinase kinases” (University of Massachusetts, priority 1995, dated 2003).
